Where two headings read alike, the source gives them in different places.
Tests used:
[1] = MTT cytotoxicity assay, U-937; type: cell-based; details: Homo sapiens, U-937, U937, MTT;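 also: Six-dose MTT colorimetric assay on cell monolayers, formazan absorbance read at 560 nm with 620 nm background removed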
[2] = tested on: U-937 renal cancer cells; experiment: MTT cytotoxicity assay, U-937; type: cell-based; details: for IC50: Homo sapiens, U-937;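 as to all read-outs here: Six-dose MTT colorimetric assay on cell monolayers, formazan absorbance read at 560 nm with 620 nm background removed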
[3] = molecular target: human recombinant PLK1 (Homo sapiens, UniProt P53350); experiment: PLK1 inhibitory activity assay (ADP-Glo Kinase Assay); type: biochemical; details: for %inh: PLK1 Lab Report; for IC50: mean of three independent experiments, read-out: PLK1 IC50 ± SD
Description: The BRD4 and PLK1 inhibitory assays were carried out in vitro in accordance with the manufacturer’s instructions; BRD4 was assessed using AlphaLISA Bromodomain Assay Protocol, and PLK1 kinase was tested using the ADP-Glo™ Kinase Assay Protocol, as detailed in the Supplementary file. […]
1.2.2. PLK1 inhibitory activity assay
The kinase reaction was performed with active human recombinant PLK1 and combined with the substrate dephosphorylated casein (positive control) using 1 X reaction buffer (40 mM Tris-HCl pH 7.4, 20 mM MgCl2, 0.1 mg/mL BSA, 1 mM DTT) and 20 μM ATP. The reaction was incubated at30°C for 45 minutes. The amount of ATP transferred was calculated using […] reagent from Promega according to the manufacturer’s instruction.
A plate-reading luminometer isused to measure the luminescence. […]

[4] = tested on: normal Vero cells; experiment: MTT cytotoxicity assay, normal Vero cells; type: cell-based; details: Vero; for Toxicity %: MTT
Description: (§2) Using a six-dose MTT colorimetric assay [44, 66], all new synthetic compounds were tested for cytotoxicity against three cancer cell lines: MDA-MB-231 breast cancer cells, HT-29 colorectal adenocarcinoma cells, and U-937 renal cancer cells. […] These cell lines were supplied by ATCC (American Type Culture Collection) via the Holding company for biological products and vaccines (VACSERA, Cairo, Egypt). The reference control used was Methotrexate.
1.1.In-vitro cytotoxicity screening
(§3) Using a six-dose MTT colorimetric assay [44, 66], allnew synthetic compounds were tested for cytotoxicity against three cancer cell lines: MDA-MB-231 breast cancer cells,HT-29 colorectal adenocarcinoma cells, and U-937 renal
(§4) The cell lines were supplied by ATCC (American Type Culture Collection). The reference control used was Methotrexate. The cytotoxic activities of the examined compounds were quantified by inoculating a 96-well tissue culture plate with 1 X 10^5 cells / mL (100 uL/well) and incubating it at 37°C for 24 hours to develop a complete monolayer sheet. After forming a confluent sheet of cells, the growth medium was decanted from 96-well microtiter plates, and the cell monolayer was washed twice with wash media. Two-fold dilutions of tested samples were made in RPMI medium with 2% serum (maintenance medium), and 0.1 mL of each dilution was tested in different wells, with three wells serving as controls and receiving only maintenance medium. Following that, the plate was incubated at 37°C and examined. Cells were investigated for any physical signs of toxicity, such as partial or complete monolayer loss, rounding, shrinkage, or cell granulation. MTT solution was prepared (5mg/ml in PBS) (BIO BASIC CANADA INC), and 20 uL MTT solution was added to each well. After 5 minutes on a shaking table at150 rpm to thoroughly mix the MTT into the media, it was incubated (37C, 5% CO2) for 4 hours to allow the MTT to be metabolized. Formazan (MTT metabolic product) was resuspended in 200 uL DMSO and shaken at 150 rpm for 5 minutes to thoroughly mix the formazan into the solvent. The optical density was measured at 560 nm, and the background was subtracted at 620 nm. Finally, the IC50 of the test compound in comparison to the reference was calculated using the GraphPad Prism software.

[5] = MTT cytotoxicity assay, normal Vero cells; type: cell-based; details: African green monkey, normal Vero cells, MTT; for IC50: mean of three independent experiments ± SD, read-out: In Vitro Cytotoxicity against Normal Cells IC50 Value, Vero Cells; for viability at 0.312 µM / viability at 0.625 µM / viability at 1.25 µM / viability at 2.5 µM / viability at 5 µM / viability at 10 µM: Vero
Description: as §2
1.1.In-vitro cytotoxicity screening
as §3, §4

[6] = tested on: MDA-MB-231 breast cancer cells; experiment: MTT cytotoxicity assay, MDA-MB-231; type: cell-based; details: for IC50 / viability at 0.312 µM / viability at 0.625 µM / viability at 1.25 µM / viability at 2.5 µM / viability at 5 µM / viability at 10 µM: Homo sapiens; for IC50 / viability at 0.312 µM / viability at 0.625 µM / viability at 1.25 µM / viability at 2.5 µM / viability at 5 µM / viability at 10 µM / Toxicity %: MDA-MB-231
Method in brief: (§1)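 Cells seeded at 1 X 10^5 cells/mL and grown 24 h at 37°C to a monolayer, then exposed to two-fold compound dilutions in RPMI with 2% serum, six doses. MTT added for 4 h at 37°C, formazan dissolved in DMSO, OD read at 560 nm minus 620 nm background. IC50 from dose-response.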

[7] = molecular target: T1, BRD4 (BD2) (Homo sapiens, UniProt O60885); experiment: BRD4 inhibitory activity assay (AlphaLISA Bromodomain Assay); type: binding; details: for %inh: BRD4 Lab Report; for IC50: mean of three independent experiments, read-out: BRD4 IC50 ± SD;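 as to all read-outs here: in vitro inhibition of recombinant BRD4 BD2 bromodomain binding to a BET bromodomain ligand, read by AlphaLISA proximity signal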
T1 construct: BRD4 (BD2) should be thawed on ice; purchased
Description: The BRD4 and PLK1 inhibitory assays were carried out in vitro in accordance with the manufacturer’s instructions; BRD4 was assessed using AlphaLISA Bromodomain Assay Protocol [67], and PLK1 kinase was tested using the ADP-Glo™ Kinase Assay Protocol [68], as detailed in the Supplementary file.
The BRD4 and PLK1 inhibitory assays were carried out in vitro in accordance with the manufacturer's instructions; BRD4 was assessed using AlphaLISA Bromodomain Assay Protocol [67], and PLK1 kinase was tested using the ADP-Glo™ Kinase Assay Protocol [68],
The master mixture was prepared as follows: N wells × (2.5 µL 3x BRD Homogeneous Assay Buffer 1 + 1 µL BET Bromodomain Ligand + 1.5 µL H2O). BRD4 (BD2) should be thawed on ice. Simply, the protein-containing tube was spined to recover the full content of the tube after the firstthaw. Both proteins should be aliquoted into single-use aliquots. Immediately, any remaining undiluted protein should be stored in aliquots at -80°C. BRD4 (BD2) was diluted in 1x BRD Homogeneous Assay Buffer 1 at 4 ng/µL. The diluted proteins were kept on ice until they were used. 5 µl of the master mixture is added to each well designated for the “Positive Control”, “Test Inhibitor”, and “Blank”. For the “Substrate Control”, 2.5 µL 3x BRD Homogeneous Assay Buffer 1 + 1 µL Non-acetylated Ligand 1 + 1.5 µL H2O is added. Each “Test Inhibitor” well received 2.5 µL of inhibitor solution, while the “Positive
Control”, “Substrate Control”, and “Blank” wells received 2.5 µL of the same solution without inhibitor (inhibitor buffer). Then, the “Blank” well is filled with 2.5 µL of 1x BRD Homogeneous Assay Buffer 1. After that, GSH
10 µL per well is added, the plate isshaken, and itis incubated at room temperature for 30 minutes. Streptavidin-
10 µL is added per well and incubated at room temperature for further 15 – 30 minutes [67]. The Alpha counts were read using the EnVision® multimode plate reader with the standard Alpha detection settings.

[8] = tested on: HT-29 colorectal adenocarcinoma cells; experiment: MTT cytotoxicity assay, HT-29; type: cell-based; details: for viability at 0.312 µM / viability at 0.625 µM / viability at 1.25 µM / viability at 2.5 µM / viability at 5 µM / viability at 10 µM / IC50: Homo sapiens, HT-29
Method in brief: as §1

[9] = MTT, mean of three independent experiments ± SD, read-out: IC50 Value U-937
[10] = SI = IC50 normal cells (Vero)/IC50 cancer cells
[11] = MTT, mean of three independent experiments ± SD, read-out: IC50 Value MDA-MB-231
[12] = MTT, mean of three independent experiments ± SD, read-out: IC50 Value HT-29

Chain of human recombinant PLK1 (P53350 whole entry): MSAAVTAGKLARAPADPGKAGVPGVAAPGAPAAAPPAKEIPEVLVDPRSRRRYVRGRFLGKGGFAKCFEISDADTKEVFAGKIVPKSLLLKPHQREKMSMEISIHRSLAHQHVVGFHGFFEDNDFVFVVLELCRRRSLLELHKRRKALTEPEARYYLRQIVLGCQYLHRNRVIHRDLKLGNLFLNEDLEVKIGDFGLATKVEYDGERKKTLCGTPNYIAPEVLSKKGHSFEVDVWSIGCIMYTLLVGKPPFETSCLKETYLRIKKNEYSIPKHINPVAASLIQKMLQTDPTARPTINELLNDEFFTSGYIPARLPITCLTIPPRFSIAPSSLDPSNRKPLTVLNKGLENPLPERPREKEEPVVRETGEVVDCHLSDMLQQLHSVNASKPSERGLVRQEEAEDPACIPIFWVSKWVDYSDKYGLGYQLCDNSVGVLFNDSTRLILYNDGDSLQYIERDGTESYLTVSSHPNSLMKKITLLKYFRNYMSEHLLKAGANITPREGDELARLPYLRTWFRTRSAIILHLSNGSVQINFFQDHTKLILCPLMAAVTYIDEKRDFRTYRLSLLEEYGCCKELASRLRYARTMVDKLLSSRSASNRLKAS

## COc1ccc(/C(CBr)=N\c2c(N)n(Cc3ccccc3Cl)c(=O)[nH]c2=O)cc1 [Compound 6b, (E)-6-Amino-5-((2-bromo-1-(4-methoxyphenyl)ethylidene)amino)-1-(2-chlorobenzyl) pyrimidine-2,4(1H,3H)-dione]
[1]
  viability at 0.312 µM: 99.1%
  viability at 0.625 µM: 77.5%
  viability at 1.25 µM: 28%
  viability at 2.5 µM: 12.2%
  viability at 5 µM: 10.4%
  viability at 10 µM: 9.69%
[2]; [9]
  IC50: 1.12 ± 0.02 µM
[2]; supplement viability lab report, U937, read-out: IC50 ± SD
  IC50: 0.97 µM
[2]; [10]
  Selectivity Indices (SI) U-937: 1.74
[2]; U937, MTT, 0.312 uM
  Toxicity %: 0.9259%
[2]; U937, MTT, 0.625 uM
  Toxicity %: 22.49%
[2]; U937, MTT, 1.25 uM
  Toxicity %: 72%
[2]; U937, MTT, 2.5 uM
  Toxicity %: 87.8%
[2]; U937, MTT, 5 uM
  Toxicity %: 89.6%
[2]; U937, MTT, 10 uM
  Toxicity %: 90.31%
[3]; conc 0.01 (unit not given)
  %inh: 28%
[3]; conc 0.1 (unit not given)
  %inh: 40%
[3]; conc 1 (unit not given)
  %inh: 65%
[3]; conc 10 (unit not given)
  %inh: 80%
[3]; conc 100 (unit not given)
  %inh: 94%
[3]
  IC50: 0.204 ± 0.009 µM
[4]; Chlorocebus sabaeus, supplement viability lab report
  IC50: 2.06 µM
[4]; 0.312 uM
  Toxicity %: 0.9182%
[4]; 0.625 uM
  Toxicity %: 0.8782%
[4]; 1.25 uM
  Toxicity %: 29.74%
[4]; 2.5 uM
  Toxicity %: 61.6%
[4]; 5 uM
  Toxicity %: 87.19%
[4]; 10 uM
  Toxicity %: 93.85%
[5]
  IC50: 1.95 ± 0.05 µM
  viability at 0.312 µM: 99.1%
  viability at 0.625 µM: 99.1%
  viability at 1.25 µM: 70.3%
  viability at 2.5 µM: 38.4%
  viability at 5 µM: 12.8%
  viability at 10 µM: 6.15%
[6]; [11]
  IC50: 1 ± 0.02 µM
[6]; MTT, 0.312 uM
  viability at 0.312 µM: 84.9%
  Toxicity %: 15.07%
[6]; MTT, 0.625 uM
  viability at 0.625 µM: 26.6%
  Toxicity %: 73.45%
[6]; MTT, 1.25 uM
  viability at 1.25 µM: 10.2%
  Toxicity %: 89.85%
[6]; MTT, 2.5 uM
  viability at 2.5 µM: 8.47%
  Toxicity %: 91.53%
[6]; MTT, 5 uM
  viability at 5 µM: 8.55%
  Toxicity %: 91.45%
[6]; MTT, 10 uM
  viability at 10 µM: 4.7%
  Toxicity %: 95.3%
[6]; supplement viability lab report, read-out: IC50 ± SD
  IC50: 0.63 µM
[6]; SI = IC50 normal cells (Vero)/IC50 cancer cells, ≥5 highly, >2 moderately, <2 non-selective
  Selectivity Indices (SI) MDA-MB-231: 1.95
[7]; conc 0.01 (unit not given)
  %inh: 30%
[7]; conc 0.1 (unit not given)
  %inh: 46%
[7]; conc 1 (unit not given)
  %inh: 67%
[7]; conc 10 (unit not given)
  %inh: 83%
[7]; conc 100 (unit not given)
  %inh: 94%
[7]
  IC50: 0.077 ± 0.003 µM
[8]; HT29, MTT, 0.312 uM
  Toxicity %: 0.3876%
  viability at 0.312 µM: 99.6%
[8]; HT29, MTT, 0.625 uM
  Toxicity %: 47.33%
  viability at 0.625 µM: 52.7%
[8]; HT29, MTT, 1.25 uM
  Toxicity %: 95.82%
  viability at 1.25 µM: 4.18%
[8]; HT29, MTT, 2.5 uM
  Toxicity %: 95.95%
  viability at 2.5 µM: 4.05%
[8]; HT29, MTT, 5 uM
  Toxicity %: 95.61%
  viability at 5 µM: 4.39%
[8]; HT29, MTT, 10 uM
  Toxicity %: 93.71%
  viability at 10 µM: 6.29%
[8]; [12]
  IC50: 1.69 ± 0.01 µM
[8]; supplement viability lab report, HT29, read-out: IC50 ± SD
  IC50: 0.75 µM
[8]; [10]
  Selectivity Indices (SI) HT-29: 1.15

## Cn1c(SCC(=O)c2ccccc2)nc(=O)c(/N=C(/CBr)c2ccccc2)c1N [Compound 7, (E)-6-Amino-5-((2-bromo-1-phenylethylidene)amino)-1-methyl-2-((2-oxo-2-phenylethyl)thio)pyrimidin-4(1H)-one]
[1]
  viability at 0.312 µM: 94%
  viability at 0.625 µM: 88.3%
  viability at 1.25 µM: 55.4%
  viability at 2.5 µM: 39.7%
  viability at 5 µM: 29.6%
  viability at 10 µM: 11.4%
[2]; [9]
  IC50: 1.85 ± 0.04 µM
[2]; U937, MTT, 0.312 uM
  Toxicity %: 5.991%
[2]; U937, MTT, 0.625 uM
  Toxicity %: 11.66%
[2]; U937, MTT, 1.25 uM
  Toxicity %: 44.55%
[2]; U937, MTT, 2.5 uM
  Toxicity %: 60.35%
[2]; U937, MTT, 5 uM
  Toxicity %: 70.37%
[2]; U937, MTT, 10 uM
  Toxicity %: 88.56%
[3]; conc 0.01 (unit not given)
  %inh: 43%
[3]; conc 0.1 (unit not given)
  %inh: 60%
[3]; conc 1 (unit not given)
  %inh: 76%
[3]; conc 10 (unit not given)
  %inh: 90%
[3]; conc 100 (unit not given)
  %inh: 95%
[3]
  IC50: 0.02 ± 0.001 µM
[4]; 0.312 uM
  Toxicity %: 0.3992%
[4]; 0.625 uM
  Toxicity %: 0.1996%
[4]; 1.25 uM
  Toxicity %: 2.395%
[4]; 2.5 uM
  Toxicity %: 26.55%
[4]; 5 uM
  Toxicity %: 68.38%
[4]; 10 uM
  Toxicity %: 89.46%
[5]
  IC50: 3.92 ± 0.08 µM
  viability at 0.312 µM: 99.6%
  viability at 0.625 µM: 99.8%
  viability at 1.25 µM: 97.6%
  viability at 2.5 µM: 73.5%
  viability at 5 µM: 31.6%
  viability at 10 µM: 10.5%
[6]; [11]
  IC50: 0.4 ± 0.01 µM
[6]; MTT, 0.312 uM
  viability at 0.312 µM: 57%
  Toxicity %: 42.95%
[6]; MTT, 0.625 uM
  viability at 0.625 µM: 28.9%
  Toxicity %: 71.14%
[6]; MTT, 1.25 uM
  viability at 1.25 µM: 16.5%
  Toxicity %: 83.51%
[6]; MTT, 2.5 uM
  viability at 2.5 µM: 11.7%
  Toxicity %: 88.25%
[6]; MTT, 5 uM
  viability at 5 µM: 11%
  Toxicity %: 88.96%
[6]; MTT, 10 uM
  viability at 10 µM: 4.92%
  Toxicity %: 95.08%
[7]; conc 0.01 (unit not given)
  %inh: 38%
[7]; conc 0.1 (unit not given)
  %inh: 56%
[7]; conc 1 (unit not given)
  %inh: 74%
[7]; conc 10 (unit not given)
  %inh: 89%
[7]; conc 100 (unit not given)
  %inh: 95%
[7]
  IC50: 0.042 ± 0.002 µM
[8]; HT29, MTT, 0.312 uM
  Toxicity %: 0.04307%
  viability at 0.312 µM: 100%
[8]; HT29, MTT, 0.625 uM
  Toxicity %: 45.56%
  viability at 0.625 µM: 54.4%
[8]; HT29, MTT, 1.25 uM
  Toxicity %: 86.39%
  viability at 1.25 µM: 13.6%
[8]; HT29, MTT, 2.5 uM
  Toxicity %: 88.67%
  viability at 2.5 µM: 11.3%
[8]; HT29, MTT, 5 uM
  Toxicity %: 93.28%
  viability at 5 µM: 6.72%
[8]; HT29, MTT, 10 uM
  Toxicity %: 93.71%
  viability at 10 µM: 6.29%
[8]; [12]
  IC50: 0.79 ± 0.01 µM
